Values of other authors as cited in patent US10653680B2, “Treatment of impulsivity-related disorders” (OXFORD UNIVERSITY INNOVATION LIMITED, priority 2016, dated 2020).

Tests used:
humans = settings: at pharmaceutically effective dosages; clinical trials for ischemic stroke (Yamaguchi et al); cited from earlier work
[1] = WO 2012/107735; cited from earlier work

**Q.** With `O=c1c2ccccc2[se]n1-c1ccccc1` [Ebselen, 2-phenyl-1,2-benzisoselenazol-3(2H)-one] as the molecule, how does the toxicity in humans (humans) read?
**A.** sufficiently non-toxic

**Q.** And the “transfer across the blood/brain barrier” value [1]?
**A.** capable of transferring across the blood/brain barrier
